Usually inhibition stands for how much of the control response was suppressed.

Molecules are shown by their SMILES. Several values for one entry are separate records, joined by “and”; a condition that tells them apart may be missing. Identical values can stand only once.

In test [1] the test system is formalin-induced inflammatory pain. The arrangement: species or system Wistar male rats. Conditions: rat, in vivo.
Test [2] has as its system heat-induced tail-flick (nociceptive pain). The arrangement: species or system Kunming mice. Conditions: mouse, in vivo. The method, then:
320 screened mice, half male and half female, were randomly divided into 16 groups. They were not given food, only water 12 hours prior to dosing.
The heat tail flick analgesia meter includes a heat source consisting of a 12 V, 50 watt, 8.75 mm projector lamp. The light beam from the heat source was focused and directed to a point on the tail of a mouse being tested, having a distance of 1-2 mm plus ⅓ of the tail length to the tail end.
The test drugs were given intramuscularly. […] The tail-flick latencies, which were assessed in response to a noxious heat stimulus, i.e., the response time from applying radiant heat on the dorsal surface of the tail to the occurrence of tail flick, were measured and recorded at 15, 30, 45, 60, 90, 120, 150, 180 min. after dosing. For each measurement, three readings were made consecutively one minute apart, and their average was recorded as the latency. The testing on one animal would be terminated when tail-flick was not observed within 20 seconds, and the latency would be recorded as 20 seconds. The pain inhibition rate was calculated according to the following formula for the purpose of assessing the analgesia potency: […]
The results were processed with SPSS, a statistical software provided by SPSS, Inc. of Chicago, Ill., USA. Half effective dose (ED50) and half inhibition dose (ID50) were calculated with the probit method.

Test [3] concerns formalin-induced inflammatory pain. Conditions: rat, in vivo; cited from earlier work.
For the next test, the system named is pain. The note with it: in vivo; cited from earlier work.

Regarding `CN1CC[C@]23c4c5ccc(O)c4O[C@H]2[C@@H](O)C=C[C@H]3[C@H]1C5.Cl` [Morphine, Morphine hydrochloride], the “ID50 of morphine” value in test [1] was 2.30 mg/kg; in test [2] it was 0.33 mg/kg. Besides, the ED95 of morphine in test [2] stood at 0.77.
On to `N=C1NC(O)C2C3OC4(O)OC(C(O)C2(N1)C4O)C3(O)CO` (stereo not drawn) [TTX, octahydro-12-(hydroxymethyl)-2-imino-5,9:7,10a-dimethano-10aH-[1,3]dioxocino[6,5-d]pyrimidine-4,7,10,11,12-pentol], for which, in test [1] (3 mg/kg), the “Inhibition rate (%)” value is 32.9% and 11.6%; the Pain reaction score was 169.1 ± 47.2 and 223.0 ± 58.3. In test [2] (3 mg/kg), the “Inhibition rate (%)” value was 5.44% and 12.06%; the Latency after dosing is 5.88 ± 1.00 and 6.04 ± 0.76. Also, the inhibition in test [3] was 71.7%. Also, the “analgesic potency relative to morphine” value in the test with pain is listed as “about 3,000 times”.

The values above are taken from patent US6780866B2, “Analgesic composition and method” (priority 2001, dated 2004).
